Where two headings read alike, the source gives them in different places.
Assay: Single ascending oral dose study in healthy volunteers: plasma pharmacokinetics
Format: in vivo, human
Conditions: plasma, oral; for concentration at 6 h / concentration at 12 h / concentration at 24 h / concentration at 48 h / concentration at 72 h / AUC(0-t) / AUC(0-inf) / Cmax / half-life / MRT / Tmax / Vd/F: human; for concentration at 12 h: 12 Hours Postdose; for concentration at 24 h: 24 Hours Postdose; for concentration at 48 h: 48 Hours Postdose; for concentration at 72 h: 72 Hours Postdose
From the text: This example describes the first-in-human study of Compound I. Based on its mechanism of action, Compound I may offer a targeted therapy for patients with DCM caused by genetic or nongenetic mechanisms. The study was a randomized, double-blind, placebo-controlled, sequential group, single-ascending (oral) close study in healthy subjects aged 18-55 years. Eight dosing cohorts, each comprising eight healthy subjects, were enrolled. Within each cohort, subjects were randomized 6:2 to Compound I:placebo.
Subjects were resident at the clinical site for up to 5 days and 4 nights, from Day −1 (the day before dosing) to Day 4, and received a single dose of Compound I or placebo on Day 1. ECG telemetry was initiated 1 hour preclose and continued through 48 hours postclose (Day 3). Any subject with a preclose resting HR≥80 beats per minute was considered ineligible and not treated. […] Subjects returned for a safety follow-up visit 7 days (±1 day) after dosing.
All randomized study subjects received either Compound I or matching placebo as a single oral dose after a fasting period of at least 6 hours. Compound I drug substance is a crystalline, free-base, synthetic molecule with a molecular weight of 435.4 g/mol.
Compound I was provided as a powder for oral suspension. Placebo was provided as calcium carbonate powder. Both treatments were closed orally as a suspension. The suspension was made using Ora-Plus® suspending vehicle (Perrigo) and a cherry syrup flavoring vehicle (Humco), mixed 50% to 50%. The suspension was followed by approximately 100 mL water. The suspension was made up within 14 days from the time in which it was closed which was consistent with the stability data on the suspension. The suspension was made up so the volume administered to the subjects who received Compound I was the same at 20 mL.
Each subject received a close according to the cohort in which they were enrolled. Cohorts were enrolled sequentially, with each cohort receiving an escalated dose of Compound I. The closes administered were 3 mg, 10 mg, 25 mg, 50 mg, 100 mg, 175 mg, 350 mg, and 525 mg, respectively.
The concentrations of Compound I in human plasma and urine were quantitated by high performance liquid chromatography with tandem mass spectrometric detection (LC MS/MS) (Biological sample analysis study report Alturas AD17-726). Plasma samples were extracted by protein precipitation with acetonitrile containing internal standard MYK-5654. The calibration curves were linear over concentration range of 0.500 to 1000 ng/mL with a lower limit of quantification (LLOQ) of 0.500 ng/mL.
The PK Population included all subjects who received Compound I. Blood samples were collected for PK assessments. The actual timing of the samples may have been modified and/or up to an additional 2 samples may have been requested by the SRC after review of the data from previous cohorts. It was important that PK sampling occurred as closely as possible to the scheduled time (±10%). Both blood and urine samples were used for PK assessments.
In addition, for subjects who received placebo, a single plasma sample near the predicted tmax of Compound I was evaluated to confirm the lack of circulating Compound I. Plasma concentration data for Compound I was summarized using descriptive statistics, including mean, standard deviation (SD), median, minimum, and maximum values, and percent coefficient of variation. Other PK parameters included (but were not limited to) Cmax, tmax, AUC, t1/2, and MRT. Additionally, the apparent terminal-phase terminal half-life was calculated. The close proportionality of AUC and Cmax was explored.

[1] = 350 mg, 350 mg, read-out: Plasma concentration, Geometric Mean
[2] = 350 mg, 350 mg, read-out: Plasma concentration, Mean
[3] = 350 mg, 350 mg, read-out: Plasma concentration, Median
[4] = 525 mg, 525 mg, read-out: Plasma concentration, Geometric Mean
[5] = 525 mg, 525 mg, read-out: Plasma concentration, Mean
[6] = 525 mg, 525 mg, read-out: Plasma concentration, Median
[7] = 350 mg + 525 mg, read-out: Plasma concentration, Geometric Mean
[8] = 350 mg + 525 mg, read-out: Plasma concentration, Mean
[9] = 350 mg + 525 mg, read-out: Plasma concentration, Median

Structure (SMILES): Cn1cc(S(=O)(=O)[C@@](C)(F)C2CCN(C(=O)Nc3ccon3)CC2)c(C(F)F)n1 [Compound I, (R)-4-(1-((3-(difluoromethyl)-1-methyl-1H-pyrazol-4-yl)sulfonyl)-1-fluoroethyl)-N-(isoxazol-3-yl)piperidine-1-carboxamide]
- concentration at 6 h (350 mg, 6 Hours Postdose, 350 mg, read-out: Plasma concentration, Mean): 2660 ng/mL
- concentration at 6 h (350 mg, 6 Hours Postdose, 350 mg, read-out: Plasma concentration, Median): 2550 ng/mL
- concentration at 12 h [1]: 2090 ng/mL
- concentration at 12 h [2]: 2140 ng/mL
- concentration at 12 h [3]: 2120 ng/mL
- concentration at 24 h [1]: 1280 ng/mL
- concentration at 24 h [2]: 1320 ng/mL
- concentration at 24 h [3]: 1340 ng/mL
- concentration at 48 h [1]: 329 ng/mL
- concentration at 48 h [2]: 373 ng/mL
- concentration at 48 h [3]: 350 ng/mL
- concentration at 72 h [1]: 101 ng/mL
- concentration at 72 h [2]: 128 ng/mL
- concentration at 72 h [3]: 111 ng/mL
- AUC(0-t) (350 mg, read-out: AUC0-24, Geometric Mean): 44700 ng·h/mL
- AUC(0-t) (350 mg, read-out: AUC0-24, Mean): 45600 ng·h/mL
- AUC(0-t) (350 mg, read-out: AUC0-24, Median): 45000 ng·h/mL
- AUC(0-t) (350 mg, read-out: AUC0-48, Geometric Mean): 64200 ng·h/mL
- AUC(0-t) (350 mg, read-out: AUC0-48, Mean): 65900 ng·h/mL
- AUC(0-t) (350 mg, read-out: AUC0-48, Median): 66400 ng·h/mL
- AUC(0-t) (350 mg, read-out: AUC0-last, Geometric Mean): 73200 ng·h/mL
- AUC(0-t) (350 mg, read-out: AUC0-last, Mean): 76300 ng·h/mL
- AUC(0-t) (350 mg, read-out: AUC0-last, Median): 76200 ng·h/mL
- AUC(0-inf) (350 mg, read-out: AUC0-∞, Geometric Mean): 73600 ng·h/mL
- AUC(0-inf) (350 mg, read-out: AUC0-∞, Mean): 76700 ng·h/mL
- AUC(0-inf) (350 mg, read-out: AUC0-∞, Median): 76200 ng·h/mL
- Cmax (350 mg, read-out: Cmax, Geometric Mean): 2790 ng/mL
- Cmax (350 mg, read-out: Cmax, Mean): 2820 ng/mL
- Cmax (350 mg, read-out: Cmax, Median): 2900 ng/mL
- half-life (350 mg, read-out: Half-Life Lambda Z, Geometric Mean (converted)): 14.3 h
- half-life (350 mg, read-out: Half-Life Lambda Z, Mean (converted)): 14.7 h
- half-life (350 mg, read-out: Half-Life Lambda Z, Median (converted)): 14.5 h
- MRT (350 mg, read-out: Mean Residence Time, Geometric Mean): 22.4 h
- MRT (350 mg, read-out: Mean Residence Time, Mean): 22.8 h
- MRT (350 mg, read-out: Mean Residence Time, Median): 22.7 h
- Tmax (350 mg, read-out: Tmax, Geometric Mean): 4.84 h
- Tmax (350 mg, read-out: Tmax, Mean): 4.95 h
- Tmax (350 mg, read-out: Tmax, Median): 5 h
- Vd/F (350 mg, read-out: Vz/F, Geometric Mean): 98.3 L
- Vd/F (350 mg, read-out: Vz/F, Mean): 98.8 L
- Vd/F (350 mg, read-out: Vz/F, Median): 98.4 L
- concentration at 6 h (525 mg, 6 Hours Postdose, 525 mg, read-out: Plasma concentration, Geometric Mean): 2160 ng/mL
- concentration at 6 h (525 mg, 6 Hours Postdose, 525 mg, read-out: Plasma concentration, Mean): 2220 ng/mL
- concentration at 6 h (525 mg, 6 Hours Postdose, 525 mg, read-out: Plasma concentration, Median): 2220 ng/mL
- concentration at 12 h [4]: 1780 ng/mL
- concentration at 12 h [5]: 1840 ng/mL
- concentration at 12 h [6]: 1780 ng/mL
- concentration at 24 h [4]: 1190 ng/mL
- concentration at 24 h [5]: 1230 ng/mL
- concentration at 24 h [6]: 1180 ng/mL
- concentration at 48 h [4]: 420 ng/mL
- concentration at 48 h [5]: 465 ng/mL
- concentration at 48 h [6]: 426 ng/mL
- concentration at 72 h [4]: 116 ng/mL
- concentration at 72 h [5]: 147 ng/mL
- concentration at 72 h [6]: 122 ng/mL
- AUC(0-t) (525 mg, read-out: AUC0-24, Geometric Mean): 37500 ng·h/mL
- AUC(0-t) (525 mg, read-out: AUC0-24, Mean): 38500 ng·h/mL
- AUC(0-t) (525 mg, read-out: AUC0-24, Median): 38200 ng·h/mL
- AUC(0-t) (525 mg, read-out: AUC0-48, Geometric Mean): 57000 ng·h/mL
- AUC(0-t) (525 mg, read-out: AUC0-48, Mean): 58900 ng·h/mL
- AUC(0-t) (525 mg, read-out: AUC0-48, Median): 57400 ng·h/mL
- AUC(0-t) (525 mg, read-out: AUC0-last, Geometric Mean): 68100 ng·h/mL
- AUC(0-t) (525 mg, read-out: AUC0-last, Mean): 71700 ng·h/mL
- AUC(0-t) (525 mg, read-out: AUC0-last, Median): 68600 ng·h/mL
- AUC(0-inf) (525 mg, read-out: AUC0-∞, Geometric Mean): 68500 ng·h/mL
- AUC(0-inf) (525 mg, read-out: AUC0-∞, Mean): 72100 ng·h/mL
- AUC(0-inf) (525 mg, read-out: AUC0-∞, Median): 68800 ng·h/mL
- Cmax (525 mg, read-out: Cmax, Geometric Mean): 2290 ng/mL
- Cmax (525 mg, read-out: Cmax, Mean): 2350 ng/mL
- Cmax (525 mg, read-out: Cmax, Median): 2240 ng/mL
- half-life (525 mg, read-out: Half-Life Lambda Z, Geometric Mean (converted)): 14.7 h
- half-life (525 mg, read-out: Half-Life Lambda Z, Mean (converted)): 15.1 h
- half-life (525 mg, read-out: Half-Life Lambda Z, Median (converted)): 13.8 h
- MRT (525 mg, read-out: Mean Residence Time, Geometric Mean): 25.4 h
- MRT (525 mg, read-out: Mean Residence Time, Mean): 25.8 h
- MRT (525 mg, read-out: Mean Residence Time, Median): 25 h
- Tmax (525 mg, read-out: Tmax, Geometric Mean): 4.94 h
- Tmax (525 mg, read-out: Tmax, Mean): 4.97 h
- Tmax (525 mg, read-out: Tmax, Median): 5 h
- Vd/F (525 mg, read-out: Vz/F, Geometric Mean): 162 L
- Vd/F (525 mg, read-out: Vz/F, Mean): 166 L
- Vd/F (525 mg, read-out: Vz/F, Median): 171 L
- concentration at 6 h (6 Hours Postdose, 350 mg + 525 mg, read-out: Plasma concentration, Geometric Mean): 2380 ng/mL
- concentration at 6 h (6 Hours Postdose, 350 mg + 525 mg, read-out: Plasma concentration, Mean): 2440 ng/mL
- concentration at 6 h (6 Hours Postdose, 350 mg + 525 mg, read-out: Plasma concentration, Median): 2350 ng/mL
- concentration at 12 h [7]: 1930 ng/mL
- concentration at 12 h [8]: 1990 ng/mL
- concentration at 12 h [9]: 1860 ng/mL
- concentration at 24 h [7]: 1230 ng/mL
- concentration at 24 h [8]: 1280 ng/mL
- concentration at 24 h [9]: 1210 ng/mL
- concentration at 48 h [7]: 372 ng/mL
- concentration at 48 h [8]: 419 ng/mL
- concentration at 48 h [9]: 415 ng/mL
- concentration at 72 h [7]: 108 ng/mL
- concentration at 72 h [8]: 137 ng/mL
- concentration at 72 h [9]: 122 ng/mL
- concentration at 6 h (6 hours post-dose, bin 0-1000 ng/mL (n = 29), read-out: Plasma Concentration, Mean): 334 ng/mL
- concentration at 6 h (6 hours post-dose, bin 0-1000 ng/mL (n = 29), read-out: Plasma Concentration, Median): 286 ng/mL
- concentration at 6 h (6 hours post-dose, bin 1001-2000 ng/mL (n = 9), read-out: Plasma Concentration, Mean): 1360 ng/mL
- concentration at 6 h (6 hours post-dose, bin 1001-2000 ng/mL (n = 9), read-out: Plasma Concentration, Median): 1270 ng/mL
- concentration at 6 h (6 hours post-dose, bin >2000 ng/mL (n = 10), read-out: Plasma Concentration, Mean): 2590 ng/mL
- concentration at 6 h (6 hours post-dose, bin >2000 ng/mL (n = 10), read-out: Plasma Concentration, Median): 2420 ng/mL
- half-life (across the dose groups, read-out: terminal t1/2): 11 to 16 h
- half-life (combined 350 and 525 mg group, read-out: t1/2, range): 11 to 22 h
- Tmax (combined 350 and 525 mg group, read-out: tmax, range): 3 to 6 h
- Vd/F (doses ranging from 3 mg to 525 mg, read-out: volume of distribution (Vz/F)): 58 to 166 L
- Vd/F (doses up to 175 mg, read-out: mean apparent volume of distribution (Vz/F)): ~78 L
- Tmax (healthy volunteers, read-out: Tmax): 4 to 6 h
- half-life (healthy volunteers, read-out: terminal t1/2 (half-life) (converted)): ~15 h
- Vd (1-compartmental model analysis of in vivo data in human): 0.965 L/kg
- clearance (1-compartmental model analysis of in vivo data in human, read-out: CL (Human)): 0.949 mL/min/kg

— patent publication US20220265629A1, “TREATMENT OF SYSTOLIC DYSFUNCTION AND HEART FAILURE WITH REDUCED EJECTION FRACTION WITH THE COMPOUND (R)-4-(1-((3-(DIFLUOROMETHYL)-1-METHYL-1H-PYRAZOL-4-YL)SULFONYL)-1-FLUOROETHYL)-N-(ISOXAZOL-3-YL)PIPERIDINE-1-CARBOXAMIDE” (MyoKardia, Inc., priority 2019, published 2022)
